SMILES strings stand for the structures.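 These data come from cells grown in 96-well plates and exposed to compound for 48 hours at five concentrations. GI50: concentration for 50% inhibition of growth. The concentration for full growth arrest is given as TGI.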

Holding throughout (assay): NCI tumour cell line growth inhibition, 48 h
Assay [1] deals with SW-620 colon.
The test system of assay [2] is SK-MEL-5 melanoma.
Assay [3] has as its system 786-0 renal.
Assay [4] relates to M14 melanoma.
The subject of assay [5] is TK-10 renal.
Assay [6] concerns ACHN renal.
For assay [7], the system named is HOP-62 NSCLC.
Assay [8] has as its system CAKI-1 renal.
The test system of assay [9] is UO-31 renal.
The subject of assay [10] is IGROV1 ovarian.

On to `Cc1cc2c(cc1Cl)S/C(=C/C(=O)O)C(Nc1cccc3nsnc13)=NS2(=O)=O`, for which the GI50 in [1] is 44.8 µM; in assay [2], 33.4 µM; in assay [3], 36.5 µM; in assay [4] it was above 47 µM; in assay [5], above 58 µM; in assay [6] it was above 52.3 µM. Besides, the GI50 in [7] was above 54.8 µM; in assay [8], 56 µM; in [9], above 51.1 µM; in assay [10], above 49.9 µM. Further, the TGI was above 67.6 µM in assay [1]; above 58.5 µM in assay [2]; above 62.2 µM in assay [3]; above 60.5 µM in [4]; above 72.5 µM in [5]; above 64.9 µM in assay [6]. In addition, the TGI was above 66.9 µM in assay [7], above 76.6 µM in assay [8], above 79.2 µM in assay [9] and above 78.3 µM in [10].

As for `Cc1cc(C)n(C2=NS(=O)(=O)c3ccccc3N2C)n1`, the TGI in assay [1], in assay [2], in assay [3], in [4], in [5] and in [6] was above 100 µM in each case. Also, the TGI in assay [7], in assay [8], in [9] and in assay [10] was above 100 µM throughout.

As for `CC1c2ccccc2N=C2SC(=S)N3CCN=C3N21` (stereo not given), the GI50 was above 100 µM in assay [1]; 2.25 µM in assay [2]; above 100 µM in assay [3]; above 100 µM in [4]; above 100 µM in assay [5]; above 100 µM in [6]. Moreover, the GI50 in assay [7], in assay [8], in assay [9] and in assay [10] was above 100 µM in each case. Further, the TGI in assay [1] is above 100 µM; in [2], 35.8 µM; in [3], above 100 µM; in assay [4], above 100 µM; in [5] it was above 100 µM; in [6], above 100 µM. Further, the TGI in [7], in assay [8], in assay [9] and in [10] was above 100 µM each time.

`COc1ccc(-c2c(C3=NCCCN3)nnn2-c2ccc([N+](=O)[O-])cc2)cc1`: the TGI in assay [1], in [2], in assay [3], in assay [4], in assay [5] and in assay [6] was above 100 µM throughout. Moreover, the TGI in [7], in [8], in [9] and in assay [10] was above 100 µM each time.

Regarding `C=CCNC(=O)N(CCC)CCCC(NC(C)=O)C(=O)NCc1ccccc1` (stereo not given), the TGI in assay [1], in assay [2], in [3], in assay [4], in [5] and in [6] was above 100 µM throughout. Besides, the TGI in assay [7], in assay [8], in [9] and in [10] was above 100 µM throughout.

As for `O=C(c1cccs1)C1NO[N+]([O-])=C1c1cccs1` (stereo not given), the GI50 in assay [1] is 1.54 µM; in assay [2], 16.2 µM; in [3], 2.01 µM; in assay [4], 2.71 µM; in assay [5] it was 2.45 µM; in assay [6] it was 1.85 µM. Also, the GI50 is 4.77 µM in assay [7], 1.61 µM in assay [8], 0.27 µM in assay [9] and 1.75 µM in assay [10]. Also, the TGI in assay [1] worked out at 3.01 µM; in assay [2], 31 µM; in [3] it was 3.88 µM; in [4], 7.87 µM; in assay [5], 6.27 µM; in [6] it was 3.56 µM. Besides, the TGI in [7] turned out to be 11.4 µM; in assay [8], 3.41 µM; in assay [9] it was 1.47 µM; in [10] it was 3.72 µM.

In the case of `Cc1ccc(C)c(N2C(=O)C(=O)C(c3nc4ccccc4s3)C(=Nc3cccc4c(=O)[nH][nH]c(=O)c34)C2=O)c1` (stereo not given), the TGI in [1], in assay [2], in assay [3], in assay [4], in assay [5] and in [6] was above 100 µM in each case. Moreover, the TGI in assay [7], in assay [8], in assay [9] and in assay [10] was above 100 µM throughout.

As to `CCN(CC)c1ccc(/C=C/C2=[N+](C)c3ccccc3C2(C)C)c(C)c1`, the GI50 is 0.0703 µM in [1]; 0.0335 µM in [2]; 0.0941 µM in assay [3]; 0.0853 µM in assay [4]; 0.0779 µM in [5]; 0.0773 µM in assay [6]. Besides, the GI50 in assay [7] is 0.0983 µM; in assay [8], 0.926 µM; in [9] it was 0.088 µM; in assay [10], 0.117 µM. Also, the TGI is 12.8 µM in assay [1]; 0.0854 µM in assay [2]; 1.88 µM in assay [3]; 1.64 µM in assay [4]; 5.3 µM in assay [5]; 3.97 µM in assay [6]. Moreover, the TGI is 1.74 µM in [7], 12 µM in assay [8], 2.53 µM in [9] and 11.4 µM in [10].

For `CCCCCCCCCCCCCCCCCCOCC(COCCOCC[N+]1(CCCCCC(=O)[O-])CCCC1)Oc1ncccn1` (stereo not given), the TGI came to 19.2 µM in [1]; 15.2 µM in assay [2]; 22.2 µM in assay [3]; 22.7 µM in assay [4]; 20.3 µM in assay [5]; 23.7 µM in assay [6]. In addition, the TGI in assay [7] turned out to be 5.24 µM; in [8] it was 22.7 µM; in assay [9], 23.6 µM; in [10] it was 3.83 µM.
